# Test results as given in patent US10124085B2, “Antimicrobial and antiviral hygienic products” (priority 2014, dated 2018).
# Tests used:
# [1] = tested on: enteric bacteria; settings: cited from earlier work
# [2] = tested on: Herpesvirus hominis; settings: 0.02% chlorhexidine gluconate; 90-minute exposure at room temperature; cited from earlier work
# [3] = tested on: Human Herpes simplex virus type 1 (HSV-1) MacIntyre strain; assay: Antiviral activity test in Vero cell culture (TCID50, Spearman-Karber); format: cell-based; settings: for Reduction ratio in virus titration / Virus titration with Chlorhexidine gluconate: 0.1%, 20° C.; for Virus titration with Chlorhexidine gluconate: reference virus 7.3
# [4] = tested on: Human adenovirus type 5 Adenoid 75 strain; assay: Antiviral activity test in HEp-2 cell culture (TCID50, Spearman-Karber); format: cell-based; settings: for Reduction ratio in virus titration / Virus titration with Chlorhexidine gluconate: 0.1%, 20° C.; for Virus titration with Chlorhexidine gluconate: reference virus 5.5
# [5] = tested on: Poliovirus type 1 Chat strain; format: cell-based
# [6] = tested on: adenovirus; settings: 0.02% chlorhexidine gluconate; 90-minute exposure at room temperature; cited from earlier work
# [7] = tested on: poliovirus; settings: 0.02% chlorhexidine gluconate; 90-minute exposure at room temperature; cited from earlier work
# [8] = tested on: HEp-2 cells (ATCC CCL-23)
# [9] = tested on: Escherichia coli; assay: Modified disc diffusion method; format: cell-based; design: key: +sign indicates that the boron compounds had antimicrobial activity.; −sign indicates that there is no antimicrobial activity; settings: disc immersed in pulverized boron compound; Ofloxacin 10 μg/disc; 36±1° C., 24 hours
# [10] = tested on: Staphylococcus aureus; assay: Modified disc diffusion method; format: cell-based; design: key: +sign indicates that the boron compounds had antimicrobial activity.; −sign indicates that there is no antimicrobial activity; settings: disc immersed in pulverized boron compound; Ofloxacin 10 μg/disc; 36±1° C., 24 hours
# [11] = tested on: Pseudomonas aeruginosa; assay: Modified disc diffusion method; format: cell-based; design: key: +sign indicates that the boron compounds had antimicrobial activity.; −sign indicates that there is no antimicrobial activity; settings: disc immersed in pulverized boron compound; Ofloxacin 10 μg/disc; 36±1° C., 24 hours
# [12] = tested on: Candida glabrata; assay: Modified disc diffusion method; format: cell-based; design: key: +sign indicates that the boron compounds had antimicrobial activity.; −sign indicates that there is no antimicrobial activity; settings: disc immersed in pulverized boron compound; Nystatin 30 μg/disc; 36±1° C., 48 hours
# [13] = tested on: Fusarium oxysporum; assay: Modified disc diffusion method; format: cell-based; design: key: +sign indicates that the boron compounds had antimicrobial activity.; −sign indicates that there is no antimicrobial activity; settings: disc immersed in pulverized boron compound; Nystatin 30 μg/disc; 25±1° C., 72 hours
# [14] = tested on: Botrytis cinerea; assay: Modified disc diffusion method; format: cell-based; design: key: +sign indicates that the boron compounds had antimicrobial activity.; −sign indicates that there is no antimicrobial activity; settings: disc immersed in pulverized boron compound; Nystatin 30 μg/disc; 25±1° C., 72 hours
# [15] = tested on: all of the tested microorganisms; format: cell-based
# [16] = tested on: Penicillium expansum; assay: Modified disc diffusion method; format: cell-based; design: key: +sign indicates that the boron compounds had antimicrobial activity.; −sign indicates that there is no antimicrobial activity; settings: disc immersed in pulverized boron compound; Nystatin 30 μg/disc; 25±1° C., 72 hours
# [17] = tested on: Aspergillus niger; assay: Modified disc diffusion method; format: cell-based; design: key: +sign indicates that the boron compounds had antimicrobial activity.; −sign indicates that there is no antimicrobial activity; settings: disc immersed in pulverized boron compound; Nystatin 30 μg/disc; 25±1° C., 72 hours
# [18] = tested on: Candida albicans; assay: Modified disc diffusion method; format: cell-based; design: key: +sign indicates that the boron compounds had antimicrobial activity.; −sign indicates that there is no antimicrobial activity; settings: disc immersed in pulverized boron compound; Nystatin 30 μg/disc; 36±1° C., 48 hours
# [19] = tested on: Penicillium vinaceum; assay: Modified disc diffusion method; format: cell-based; design: key: +sign indicates that the boron compounds had antimicrobial activity.; −sign indicates that there is no antimicrobial activity; settings: disc immersed in pulverized boron compound; Nystatin 30 μg/disc; 25±1° C., 72 hours
# [20] = tested on: Botrytis cinerea; settings: 1% concentration; cited from earlier work
# [21] = tested on: Penicillium expansium; settings: cited from earlier work
# [22] = tested on: various bacterial strains; settings: 10-minute exposure; 0.02% chlorhexidine solution; cited from earlier work
# [23] = tested on: streptococci; settings: cited from earlier work
# [24] = tested on: Propionibacterium acnes; settings: cited from earlier work
# [25] = tested on: micrococci; settings: cited from earlier work
# [26] = room temperature (20° C.), clean and polluted media, 1 and 60 minute application periods
# [27] = used directly without being diluted, room temperature (20° C.), 1 and 60 minute application periods
compound,measurement,setting,value
OB(O)O [boric acid],antibacterial activity,[1],has antibacterial activity
N=C(NCCCCCCNC(=N)NC(=N)Nc1ccc(Cl)cc1)NC(=N)Nc1ccc(Cl)cc1.O=C(O)[C@H](O)[C@@H](O)[C@H](O)[C@H](O)CO.O=C(O)[C@H](O)[C@@H](O)[C@H](O)[C@H](O)CO [Chlorhexidine gluconate],reduction of virus titration,[2],more than 99%
same,Reduction ratio in virus titration,"[3]; 1 minute, Clean medium",4 Logarithmic TCID50
same,Virus titration with Chlorhexidine gluconate,"[3]; 1 minute, Clean medium",2.3 Logarithmic TCID50
same,Reduction ratio in virus titration,"[3]; 1 minute, Polluted medium",4 Logarithmic TCID50
same,Virus titration with Chlorhexidine gluconate,"[3]; 1 minute, Polluted medium",2.3 Logarithmic TCID50
same,Reduction ratio in virus titration,"[3]; 60 minutes, Clean medium",4 Logarithmic TCID50
same,Virus titration with Chlorhexidine gluconate,"[3]; 60 minutes, Clean medium",2.3 Logarithmic TCID50
same,Reduction ratio in virus titration,"[3]; 60 minutes, Polluted medium",4 Logarithmic TCID50
same,Virus titration with Chlorhexidine gluconate,"[3]; 60 minutes, Polluted medium",2.3 Logarithmic TCID50
same,reduction in virus titration,[3]; [26],at least 4 log
same,active against virus,[3]; [27],99.9%
same,Reduction ratio in virus titration,"[4]; 1 minute, Clean medium",4.0 Logarithmic TCID50
same,Virus titration with Chlorhexidine gluconate,"[4]; 1 minute, Clean medium",1.5 Logarithmic TCID50
same,Reduction ratio in virus titration,"[4]; 1 minute, Polluted medium",4.0 Logarithmic TCID50
same,Virus titration with Chlorhexidine gluconate,"[4]; 1 minute, Polluted medium",1.5 Logarithmic TCID50
same,Reduction ratio in virus titration,"[4]; 60 minutes, Clean medium",4.5 Logarithmic TCID50
same,Virus titration with Chlorhexidine gluconate,"[4]; 60 minutes, Clean medium",1.0 Logarithmic TCID50
same,Reduction ratio in virus titration,"[4]; 60 minutes, Polluted medium",4.0 Logarithmic TCID50
same,Virus titration with Chlorhexidine gluconate,"[4]; 60 minutes, Polluted medium",1.5 Logarithmic TCID50
same,reduction in virus titration,[4]; [26],at least 4 log
same,active against virus,[4]; [27],99.9%
same,reduction in virus titration,[5],at least 4 log
same,Reduction ratio in virus titration,"[5]; 0.1%, 20° C.",4.2 Logarithmic TCID50
same,Virus titration with Chlorhexidine gluconate,"[5]; 0.1%, 20° C.",1.3 Logarithmic TCID50
same,activity against virus,[6],ineffective
same,activity against virus,[7],ineffective
same,cytopathic effect on the cells in the cell culture,[8],showed cytopathic effect
same,lowest ratio which does not show cytopathic effect,[8],0.1%
CC1COc2c(N3CCN(C)CC3)c(F)cc3c(=O)c(C(=O)O)cn1c23 (stereo not drawn) [Ofloxacin],Antimicrobial activity (inhibition zone),[9],+
same,Antimicrobial activity (inhibition zone),[10],+
same,Antimicrobial activity (inhibition zone),[11],+
Sodium Borate [SB],Antimicrobial activity (inhibition zone),[12],+
same,Antimicrobial activity (inhibition zone),[9],+
same,Antimicrobial activity (inhibition zone),[13],+
same,Antimicrobial activity (inhibition zone),[14],+
same,"concentration giving the most effective antimicrobial (antifungal, anticandidal and antibacterial) results",[15],4 mg/cm^2
same,Antimicrobial activity (inhibition zone),[16],+
same,Antimicrobial activity (inhibition zone),[10],+
same,Antimicrobial activity (inhibition zone),[17],+
same,Antimicrobial activity (inhibition zone),[11],+
same,Antimicrobial activity (inhibition zone),[18],+
same,Antimicrobial activity (inhibition zone),[19],+
C[C@@H]1[C@H](O)[C@@H](C)/C=C/C=C/CC/C=C/C=C/C=C/C=C/C(O[C@H]2O[C@H](C)[C@@H](O)[C@H](N)[C@@H]2O)CC2O[C@](O)(CC(O)C(O)CCC(O)CC(O)CC(O)CC(=O)O[C@H]1C)CC(O)C2C(=O)O (stereo partly drawn) [Nystatin],Antimicrobial activity (inhibition zone),[12],+
same,Antimicrobial activity (inhibition zone),[13],+
same,Antimicrobial activity (inhibition zone),[14],+
same,Antimicrobial activity (inhibition zone),[16],+
same,Antimicrobial activity (inhibition zone),[17],+
same,Antimicrobial activity (inhibition zone),[18],+
same,Antimicrobial activity (inhibition zone),[19],+
[K+].[K+].[O-]B1OB2OB([O-])OB(O1)O2 [potassium tetraborate],control of mold causing disease on the grapes,[20],could control
same,minimum concentration preventing micelle growth,[21],0.1%
[H]/N=C(\N/C(=N/[H])NCCCCCCNC(=N)NC(=N)Nc1ccc(Cl)cc1)Nc1ccc(Cl)cc1 [chlorhexidine],inhibition of microorganisms,[22],99.99%
"O.O.O.O.O.[Na+].[Na+].[O-]B1OB2OB([O-])OB(O1)O2 [BP, Borax pentahydrate]",Antimicrobial activity (inhibition zone),[12],+
same,Antimicrobial activity (inhibition zone),[9],+
same,Antimicrobial activity (inhibition zone),[13],+
same,Antimicrobial activity (inhibition zone),[14],+
same,"concentration giving the most effective antimicrobial (antifungal, anticandidal and antibacterial) results",[15],5.5 mg/cm^2
same,Antimicrobial activity (inhibition zone),[16],+
same,Antimicrobial activity (inhibition zone),[10],+
same,Antimicrobial activity (inhibition zone),[17],+
same,Antimicrobial activity (inhibition zone),[11],+
same,Antimicrobial activity (inhibition zone),[18],+
same,Antimicrobial activity (inhibition zone),[19],+
"O.O.O.O.[Na+].[O-]B1OO1 [SPT, Sodium perborate tetrahydrate]",Antimicrobial activity (inhibition zone),[12],+
same,Antimicrobial activity (inhibition zone),[9],+
same,Antimicrobial activity (inhibition zone),[13],+
same,Antimicrobial activity (inhibition zone),[14],+
same,"concentration giving the most effective antimicrobial (antifungal, anticandidal and antibacterial) results",[15],5.5 mg/cm^2
same,Antimicrobial activity (inhibition zone),[16],+
same,Antimicrobial activity (inhibition zone),[10],+
same,Antimicrobial activity (inhibition zone),[17],+
same,Antimicrobial activity (inhibition zone),[11],+
same,Antimicrobial activity (inhibition zone),[18],+
same,Antimicrobial activity (inhibition zone),[19],+
Oc1cc(Cl)ccc1Oc1ccc(Cl)cc1Cl [triclosan],effectiveness relative to hexachlorophene,[23],less effective
same,effectiveness relative to hexachlorophene,[24],less effective
same,effectiveness relative to hexachlorophene,[25],less effective
